Measurements as given in patent US9951049B2, “Pyrazole linked benzimidazole conjugates and a process for preparation thereof” (Council of Scientific & Industrial Reseach, priority 2014, dated 2018).
“Also recorded” adds a separate entry of the source. Read-outs that look alike come from different tables or passages of the source.

Experiments:
HT29 = assay: NCI SRB screen, HT29; settings: Homo sapiens, HT-29, 48 h, read-out: GI50 values
MALME-3M = assay: NCI SRB screen, MALME-3M; settings: Homo sapiens, 48 h, read-out: GI50 values
A549/ATCC = assay: NCI SRB screen, A549/ATCC; settings: Homo sapiens, A549, 48 h, read-out: GI50 values
CCRF-CEM = assay: NCI SRB screen, CCRF-CEM; settings: Homo sapiens, 48 h, read-out: GI50 values
OVCAR-5 = assay: NCI SRB screen, OVCAR-5; settings: Homo sapiens, OVCAR-5, 48 h, read-out: GI50 values
HS 578T = assay: NCI SRB screen, HS 578T; settings: Homo sapiens, 48 h, read-out: GI50 values
ACHN = assay: NCI SRB screen, ACHN; settings: Homo sapiens, 48 h, read-out: GI50 values
T-47D = assay: NCI SRB screen, T-47D; settings: Homo sapiens, T47D, 48 h, read-out: GI50 values
U251 = assay: NCI SRB screen, U251; settings: Homo sapiens, U-251, 48 h, read-out: GI50 values
HL-60(TB) = assay: NCI SRB screen, HL-60(TB); type: cell-based; settings: Homo sapiens, Leukemia, 48 h
RXF 393 = assay: NCI SRB screen, RXF 393; settings: Homo sapiens, RXF 393, 48 h, read-out: GI50 values
NCI-H226 = assay: NCI SRB screen, NCI-H226; settings: Homo sapiens, NCI-H226, 48 h, read-out: GI50 values
KM12 = assay: NCI SRB screen, KM12; settings: Homo sapiens, KM12, 48 h, read-out: GI50 values
Breast Cancer cell lines = assay: NCI SRB screen, Breast Cancer panel average; settings: Homo sapiens, 48 h, read-out: Log10 GI50 (converted)
K-562 = assay: NCI SRB screen, K-562; settings: Homo sapiens, K562, 48 h, read-out: GI50 values
HOP-62 = assay: NCI SRB screen, HOP-62; settings: Homo sapiens, HOP-62, 48 h, read-out: GI50 values
OVCAR-8 = assay: NCI SRB screen, OVCAR-8; settings: Homo sapiens, OVCAR-8, 48 h, read-out: GI50 values
Melanoma cell lines = assay: NCI SRB screen, Melanoma panel average; settings: Homo sapiens, 48 h, read-out: Log10 GI50 (converted)
MDA-MB-231/ATCC = assay: NCI SRB screen, MDA-MB-231/ATCC; settings: Homo sapiens, MDA-MB-231, 48 h, read-out: GI50 values
[1] = system: Prostate cancer cell lines; assay: NCI SRB screen, Prostate panel average; settings: Homo sapiens, 48 h, read-out: Log10 GI50 (converted)
NCI/ADR-RES = assay: NCI SRB screen, NCI/ADR-RES; settings: Homo sapiens, 48 h, read-out: GI50 values
Leukemia cell lines = assay: NCI SRB screen, Leukemia panel average; settings: Homo sapiens, 48 h, read-out: Log10 GI50 (converted)
A498 = assay: NCI SRB screen, A498; settings: Homo sapiens, A498, 48 h, read-out: GI50 values
SNB-19 = assay: NCI SRB screen, SNB-19; settings: Homo sapiens, SNB-19, 48 h, read-out: GI50 values
HCT-116 = assay: NCI SRB screen, HCT-116; settings: Homo sapiens, HCT-116, 48 h, read-out: GI50 values
DU-145 = assay: NCI SRB screen, DU-145; settings: Homo sapiens, DU-145, 48 h, read-out: GI50 values
[2] = system: Ovarian cancer cell lines; assay: NCI SRB screen, Ovarian panel average; settings: Homo sapiens, 48 h, read-out: Log10 GI50 (converted)
[3] = system: fifty six human tumor cell lines; assay: NCI human tumor cell line screen (48 h, SRB), all cell lines; settings: for GI50: Homo sapiens; for anticancer activity (in words): human cancer cell lines of the NCI panel; for Log10 TGI mean graph midpoint (MG_MID): human tumor cell lines, mean over the panel, total growth inhibition; for potency compared with compounds 6f, 6g, 7g and 10f: against all the cell lines tested
786-0 = assay: NCI SRB screen, 786-0; settings: Homo sapiens, 786-0, 48 h, read-out: GI50 values
SF-268 = assay: NCI SRB screen, SF-268; settings: Homo sapiens, SF-268, 48 h, read-out: GI50 values
MDA-MB-435 = assay: NCI SRB screen, MDA-MB-435 (Breast panel); settings: Homo sapiens, MDA-MB-435, 48 h, read-out: GI50 values
NCI-H522 = assay: NCI SRB screen, NCI-H522; settings: Homo sapiens, NCI-H522, 48 h, read-out: GI50 values, Non-small cell lung, NCI-H522
SR = assay: NCI SRB screen, SR; settings: Homo sapiens, 48 h, read-out: GI50 values
CAKI-1 = assay: NCI SRB screen, CAKI-1; settings: Homo sapiens, CAKI-1, 48 h, read-out: GI50 values
[4] = read-out: Log10 GI50 mean graph midpoint (MG_MID) (converted)

| SMILES | GI50 (HT29) [µM] | GI50 (MALME-3M) [nM] | GI50 (A549/ATCC) [nM] | GI50 (CCRF-CEM) [nM] | GI50 (OVCAR-5) [nM] | GI50 (HS 578T) [µM] | GI50 (ACHN) [µM] | GI50 (T-47D) [nM] | GI50 (U251) [nM] | GI50 (HL-60(TB)) [nM] | GI50 (RXF 393) [nM] | GI50 (NCI-H226) [nM] | GI50 (KM12) [nM] | GI50 (Breast Cancer cell lines) [nM] | GI50 (K-562) [µM] | GI50 (HOP-62) [µM] | GI50 (OVCAR-8) [nM] | GI50 (Melanoma cell lines) [nM] | GI50 (MDA-MB-231/ATCC) [µM] | GI50 [1] [nM] | other results |
| --- | --- | --- | --- | --- | --- | --- | --- | --- | --- | --- | --- | --- | --- | --- | --- | --- | --- | --- | --- | --- | --- |
| COc1cc(-c2cc(-c3nc4cc(Cl)c(Cl)cc4[nH]3)[nH]n2)cc(OC)c1OC [10f, 5,6-dichloro-2-(3-(3,4,5-trimethoxyphenyl)-1H-pyrazol-5-yl)-1H-benzo[d]imidazole] | 3.42 | 2700 | 2870 | 2350 | 7080 | 4.53 | 3.54 | 1870 | 2970 | 3340 | 3170 | 2290 | 3560 | 3160 | 3.3 | 3.43 | 2510 | 2820 | 4.14 | 3020 | GI50 (NCI/ADR-RES): 3.25 µM; GI50 (Leukemia cell lines): 2750 nM; GI50 (A498): 4210 nM; GI50 (SNB-19): 5.47 µM; GI50 (HCT-116): 2.78 µM; GI50 (DU-145): 4.16 µM; GI50 [2]: 4.47 µM; GI50 ([3]; read-out: GI50 value range): 0.34 to 10 µM; GI50 [3, 4]: 3.31 µM; anticancer activity (in words) [3]: significant anticancer activity; also recorded: pronounced activities; Log10 TGI mean graph midpoint (MG_MID) [3]: −4.88; GI50 (786-0): 4.09 µM; GI50 (SF-268): 3.95 µM; GI50 (MDA-MB-435): 3490 nM; GI50 (NCI-H522): 2020 nM; GI50 (SR): 3.89 µM; GI50 (CAKI-1): 3810 nM |
| COc1ccc2[nH]c(-c3cc(-c4cc(OC)c(OC)c(OC)c4)n[nH]3)nc2c1 [9f, 5-methoxy-2-(3-(3,4,5-trimethoxyphenyl)-1H-pyrazol-5-yl)-1H-benzo[d]imidazole] | 2.76 | 1740 | 1630 | 1290 | 3030 | 2.89 | 2.63 | 340 | 2900 | 1690 | 2490 | 460 | 1700 | 1150 | 2.01 | 2.02 | 1150 | 1320 | 2.87 | 1550 | GI50 (NCI/ADR-RES): 2.91 µM; GI50 (Leukemia cell lines): 1260 nM; GI50 (A498): 2230 nM; GI50 (SNB-19): 2.98 µM; GI50 (HCT-116): 1.81 µM; GI50 (DU-145): 2.29 µM; GI50 [2]: 2.04 µM; GI50 ([3]; read-out: GI50 value range): 0.34 to 10 µM; GI50 [3, 4]: 1.7 µM; potency compared with compounds 6f, 6g, 7g and 10f [3]: more potent; growth inhibitory activity (in words) ([3]; against breast cancer and leukemia cell lines): potential growth inhibitory activity; anticancer activity (in words) [3]: significant anticancer activity; also recorded: pronounced activities; Log10 TGI mean graph midpoint (MG_MID) [3]: −5.17; GI50 (786-0): 2.92 µM; GI50 (SF-268): 2.74 µM; GI50 (MDA-MB-435): 380 nM; GI50 (NCI-H522): 1210 nM; GI50 (SR): 1.74 µM; GI50 (CAKI-1): 1790 nM |
| c1ccc2[nH]c(-c3cc(-c4ccc5c(c4)OCO5)n[nH]3)nc2c1 [6g, 2-(3-(benzo[d][1,3]dioxol-5-yl)-1H-pyrazol-5-yl)-1H-benzo[d]imidazole] | 3.66 | 2330 | 4230 | 2520 | 1490 | 3.8 | 4.33 | 3320 | 2370 | 2270 | 2360 | 4420 | 1750 | 3390 | 3.83 | 8.46 | 3970 | 3020 | 4.12 | 5130 | GI50 (NCI/ADR-RES): 4.08 µM; GI50 (Leukemia cell lines): 2510 nM; GI50 (A498): 1700 nM; GI50 (SNB-19): 5.92 µM; GI50 (HCT-116): 6.36 µM; GI50 (DU-145): 7.27 µM; GI50 [2]: 4.37 µM; GI50 ([3]; read-out: GI50 value range): 0.34 to 10 µM; GI50 [3, 4]: 3.72 µM; anticancer activity (in words) [3]: significant anticancer activity; also recorded: pronounced activities; Log10 TGI mean graph midpoint (MG_MID) [3]: −4.75; GI50 (786-0): 4.58 µM; GI50 (SF-268): 4.77 µM; GI50 (MDA-MB-435): 3570 nM; GI50 (NCI-H522): 1980 nM; GI50 (SR): 3.37 µM; GI50 (CAKI-1): 2740 nM |
| COc1cc(-c2cc(-c3nc4cc(Cl)ccc4[nH]3)[nH]n2)cc(OC)c1OC [8f, 5-chloro-2-(3-(3,4,5-trimethoxyphenyl)-1H-pyrazol-5-yl)-1H-benzo[d]imidazole] | 4.14 | 2580 | 2960 | 2480 | 1210 | 3.58 | 2.96 | 1580 | 3380 | 2490 | 3260 | 1880 | 3450 | 2570 | 3.04 | 3.11 | 2260 | 2450 | 3.94 | 2880 | GI50 (NCI/ADR-RES): 3.16 µM; GI50 (Leukemia cell lines): 2450 nM; GI50 (A498): 2100 nM; GI50 (SNB-19): 7.25 µM; GI50 (HCT-116): 3.45 µM; GI50 (DU-145): 3.27 µM; GI50 [2]: 3.55 µM; GI50 ([3]; read-out: GI50 value range): 0.34 to 10 µM; GI50 [3, 4]: 3.02 µM; potency compared with compounds 6f, 6g, 7g and 10f [3]: more potent; anticancer activity (in words) [3]: significant anticancer activity; also recorded: pronounced activities; Log10 TGI mean graph midpoint (MG_MID) [3]: −4.93; mean graph pattern: profile of activity and selectivity ([3]; various cell lines): an interesting profile of activity and selectivity; GI50 (786-0): 5.32 µM; GI50 (SF-268): 3.6 µM; GI50 (MDA-MB-435): 2330 nM; GI50 (NCI-H522): 1900 nM; GI50 (SR): 3.32 µM; GI50 (CAKI-1): 2800 nM |
